Values of other authors in patent US5567683A, “Substituted lactose and lactosamine derivatives as cell adhesion inhibitors” (Glycomed Incorporated, priority 1994, dated 1996).

System: mammalian hepatocytes
Settings: effect of valency and spacing of lactose moieties; read-out: IC50 for inhibition of labeled ASOR binding to mammalian hepatocytes

In the case of `OC[C@H]1O[C@@H](O[C@H]2[C@H](O)[C@@H](O)C(O)O[C@@H]2CO)[C@H](O)[C@@H](O)[C@H]1O` (stereo partly shown) [monovalent lactose, lactose], the IC50 is given as 500 µM.
